Results reported in PubChem BioAssay (NCI).
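Tested at 5 concentrations; 48 h exposure; 96-well plates; endpoints linearly interpolated, else capped at highest concentration. At the TGI there is no net growth.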

Experiments:
Experiment in all cases: DTP human tumour cell line panel, 48 h
HS 578T breast = tested on: HS 578T breast
M14 melanoma = tested on: M14 melanoma
MDA-MB-435 = tested on: MDA-MB-435
MDA-N = tested on: MDA-N
NCI-H522 lung = tested on: NCI-H522 lung
RPMI-8226 leukemia = tested on: RPMI-8226 leukemia
RXF 393 renal = tested on: RXF 393 renal
U251 CNS = tested on: U251 CNS
UACC-62 melanoma = tested on: UACC-62 melanoma
UO-31 renal = tested on: UO-31 renal

Row | Structure (SMILES) | TGI (HS 578T breast) [µM] | TGI (M14 melanoma) [µM] | TGI (MDA-MB-435) [µM] | TGI (MDA-N) [µM] | TGI (NCI-H522 lung) [µM] | TGI (RPMI-8226 leukemia) [µM] | TGI (RXF 393 renal) [µM] | TGI (U251 CNS) [µM] | TGI (UACC-62 melanoma) [µM] | TGI (UO-31 renal) [µM]
1 | O=C1C(Nc2ccc(S(=O)(=O)Nc3cnc4ccccc4n3)cc2)=CC(=Nc2ccc(S(=O)(=O)Nc3cnc4ccccc4n3)cc2)c2ccccc21 | > 100 | 33.7 | 34 | 34.8 | 30.5 | > 77.8 | 32.3 | 34 | 33.6 | 30.4
2 | CCOC(=O)C1=C(C)NC(c2ccccc2)=C(C(=O)OCc2ccccc2)C1C#Cc1ccccc1 (centres undefined) | > 100 | > 100 | > 100 | > 100 |  | > 100 | > 100 | > 100 | > 100 | > 100
3 | COc1cc2ccnc3c2c(c1OC)N(C)C=C3 | > 100 | 68.8 | 80.4 | 36.1 |  | 82.2 | 68.6 | > 100 | 80.3 | 33.1
4 | CCN1CCC(O)(/C=C/c2ccc(Cl)c(Cl)c2)C(C(=O)/C=C/c2ccc(Cl)c(Cl)c2)C1 (centres undefined) | 2.42 | 1.76 | 2.22 | 2.89 | 2.33 | > 100 | 2.71 | 3.79 | 2.4 | 2.3
5 | CCOC(=O)/C(C(N)=O)=C(/O)c1cnccn1 | > 100 | > 100 | > 100 | > 100 | > 100 | > 100 | > 100 | > 100 | > 100 | > 100
6 | COc1ccc(C2=Nn3c(nc4sc5c(c4c3=O)CCCC5)SC2)cc1 | > 100 |  | > 100 | > 100 | > 100 | > 100 | > 100 | > 100 | > 100 | > 100
7 | c1ccc(C(OCCN2CC3CCC(C2)N3)c2ccccc2)cc1 | > 100 | 32.3 | > 100 | 79.6 | 93.1 | > 100 | > 100 | > 100 | 64.3 | > 100
8 | Cn1c(=Nc2ccccc2[N+](=O)[O-])sc2ccccc21 | > 100 |  | > 100 | > 100 | > 100 | > 100 | > 100 | > 100 | > 100 | > 100
9 | CCc1c[n+]2c(cc1C1=CN3c4ccccc4[C@]45CCN6C/C(=C/CO)[C@H](C[C@H]64)[C@@H]([C@@H]1O)[C@H]35)-c1[nH]c3ccccc3c1CC2 | > 50 | > 50 | > 50 | > 50 | > 50 | > 50 | > 50 | > 50 | > 50 | > 50
10 | CCCCCCCCC/C=C1/CC(CO)(COC(=O)C2CCCCC2)OC1=O (centres undefined) | > 100 | > 100 | > 100 | > 100 | > 100 |  | > 100 | > 100 | > 100 | > 100
11 | Nc1nc(Cl)cc(OCC2(CO)CCCCC2)n1 | > 100 |  | > 100 | > 100 | > 100 | > 100 | > 100 | > 100 |  | 
12 | COc1cc2c(cc1OC)C/C(=N\O)c1cc(OC)c(OC)cc1/C=C\2 | 15.1 | 27.2 | 4.05 | > 100 | 4.8 | 66.9 | 38.4 | > 41.1 | > 58 | > 69.7
13 | CCOC(=O)C(NS(=O)(=O)c1ccccc1)(C(F)(F)F)P(=O)(OCC(C)C)OCC(C)C (centres undefined) | > 100 | > 100 | > 100 | > 100 | > 100 | > 100 | > 100 | > 100 | > 100 | > 100
14 | COC(=O)[C@@]1(Cc2ccc(OC(C)=O)cc2)Cc2cc3ccccc3n2N1 | > 100 | > 100 | > 100 | 77.6 | > 100 | > 100 |  | > 100 | > 100 | > 100
15 | CCOP(=O)(OCC)C(Cc1cn(S(=O)(=O)c2ccc(C)cc2)cn1)C(=O)O (centres undefined) | > 100 | > 100 | > 100 | > 100 | > 100 | > 100 | > 100 | > 100 | > 100 | > 100
16 | CN(CCCNC(=O)c1[nH]nc2c1ccc1ccccc12)CCCNC(=O)c1[nH]nc2c1ccc1ccccc12 | 33.5 | 20.1 | 7.71 | 4.52 | 30.8 |  | 30.5 | 28.4 | 21.6 | 31.4
17 | O=c1oc2c(Cl)cc(Cl)cc2cc1-c1cn2c(n1)sc1ccccc12 | > 100 | > 100 | > 100 | > 100 | 88.8 | 89.1 | > 100 | > 100 | > 100 | > 100
18 | C[C@]12CC[C@@H]3c4cc(C=O)c(OCc5ccccc5)cc4CC[C@H]3[C@@H]1CCC2OCc1ccccc1 (some centres undefined) | > 100 | > 100 | > 100 | > 100 | > 100 | > 100 | > 100 | > 100 | > 100 | > 100
19 | COc1cc([C@@H]2c3cc4c(cc3[C@H](OC3OC5COC(C(C)C)OC5C(O)C3O)C3COC(=O)[C@@H]32)OCO4)cc(OC)c1OC (some centres undefined) | > 30.9 | > 33 | > 54.2 | 3.53 | 17.7 | 48.8 | 9.46 | > 21.2 | 26.6 | 42.1
20 | COC(=O)c1cc(NC(=O)Cn2c3ccccc3c3ccccc32)cn1C | 42.4 | > 100 | > 100 | > 100 | > 100 | 75 | > 100 | > 100 | 73.9 | > 100
21 | Cc1cc2nc3c(C)c4ccccc4c(C)n3c2cc1C | > 10 | > 10 | > 10 | 7.8 | > 10 | > 10 | 8.66 | > 10 | > 10 | 
